Results published in article PMC7011792 (Journal of Enzyme Inhibition and Medicinal Chemistry, 2017).

Tests used:
[1] = target: T1, AChE (EC 3.1.1.7) from electric eel (Electrophorus electricus, UniProt O42275); experiment: biochemical; settings: for IC50: AChE from electric eel, mean ± SEM of three experiments; for Selectivity index (SI) = BuChE IC50/AChE IC50: eqBuChE IC50 / eeAChE IC50
T1 construct: purchased Sigma-Aldrich C3389
Description: (§1) AChE (EC 3.1.1.7, Type VI-S, from electric eel, C3389; from human, C1682) and BuChE (EC 3.1.1.8, from equine serum, C0663; from human, B4186), 5,5'-dithiobis (2-nitrobenzoic acid) (DTNB, D218200), acetylthiocholine iodide (ATC, A5751), and butyrylthiocholine iodide (BTC, B3253) were obtained from Sigma-Aldrich (St. Louis, MO).
(§2) The inhibitory effects of the synthesised compounds in this paper were evaluated according to our previously reported method. […] ATC/BTC iodide solution (0.075 M) was prepared in deionised water. […] The assay buffer was prepared as follows: potassium dihydrogen phosphate (1.36 g, 10 mmol) was dissolved in 100 ml of water. The pH of the solution was then adjusted to 8.0 ± 0.1 with KOH. Stock solutions of the test samples were dissolved in ethanol to give a final concentration of 10^−4 M when diluted to the final volume of 3.32 ml. For each compound, a dilution series of at least five different concentrations (normally 10^−5–10^−9 M) were prepared.
(§3) For measurement, a cuvette containing 3.0 ml of phosphate buffer, 100 µL of AChE or BuChE, 100 µL of DTNB, and 100 µL of the test compound solution were added in sequence. The reaction was initiated after adding 20 µL of ATC or BTC, and the solution was mixed immediately. […] For the reference value, 100 µL of water replaced the test compound solution. For the blank control, additionally 100 µL of water replaced the enzyme solution. The measurement for each concentration was assayed in triplicate. GraphPad Prism 5 was used for data processing. The inhibition curve was fitted by plotting percentage enzyme activity (100% for the reference) versus logarithm of test compound concentration. The IC50 values were calculated according to the curve, and the data were shown in mean ± SEM.
(§4) The inhibitory effects on ChEs of all the target compounds were determined according to Ellman’s method. AChE from electrophorus electricus (eeAChE) and BuChE from equine serum (eqBuChE) were used in the assays.

[2] = target: T2, BuChE (EC 3.1.1.8) from horse serum (Equus caballus, UniProt P81908); experiment: biochemical; assay type: biochemical; settings: BuChE from horse serum; mean ± SEM of three experiments
T2 construct: purchased Sigma-Aldrich C0663; host or cells: equine serum
Description: as §1, §2, §3, §4

[3] = target: T3, AChE (EC 3.1.1.7) from human (Homo sapiens, UniProt P22303); experiment: Human AChE inhibition, Ellman's method; assay type: biochemical; settings: for IC50: huAChE, mean ± SEM; for Selectivity index (SI) = BuChE IC50/AChE IC50, human enzymes: huBuChE IC50 / huAChE IC50
T3 construct: purchased Sigma-Aldrich C1682
Description: as §1
(§5) The inhibitory effects of the synthesised compounds in this paper were evaluated according to our previously reported method. Briefly, AChE/BuChE stock solution was diluted to give 2.5 units/mL (for eeAChE, eqBuChE, and huAChE) or 0.5 units/mL for huBuChE. ATC/BTC iodide solution (0.075 M) was prepared in deionised water. DTNB solution (0.01 M) was prepared using water containing 0.15% (w/v) sodium bicarbonate. The assay buffer was prepared as follows: potassium dihydrogen phosphate (1.36 g, 10 mmol) was dissolved in 100 ml of water. The pH of the solution was then adjusted to 8.0 ± 0.1 with KOH. Stock solutions of the test samples were dissolved in ethanol to give a final concentration of 10^−4 M when diluted to the final volume of 3.32 ml. For each compound, a dilution series of at least five different concentrations (normally 10^−5–10^−9 M) were prepared.
(§6) For measurement, a cuvette containing 3.0 ml of phosphate buffer, 100 µL of AChE or BuChE, 100 µL of DTNB, and 100 µL of the test compound solution were added in sequence. The reaction was initiated after adding 20 µL of ATC or BTC, and the solution was mixed immediately. Two minutes (eeAChE and eqBuChE) or 15 min (huAChE and huBuChE) after ATC or BTC addition, the absorption was measured at 25 °C (eeAChE and eqBuChE) or 37 °C (huAChE and huBuChE) at 412 nm, using a Shimadzu 160 spectrophotometer. For the reference value, 100 µL of water replaced the test compound solution. For the blank control, additionally 100 µL of water replaced the enzyme solution. The measurement for each concentration was assayed in triplicate. GraphPad Prism 5 was used for data processing. The inhibition curve was fitted by plotting percentage enzyme activity (100% for the reference) versus logarithm of test compound concentration. The IC50 values were calculated according to the curve, and the data were shown in mean ± SEM.

[4] = target: T4, BuChE (EC 3.1.1.8) from human (Homo sapiens, UniProt P06276); experiment: Human BuChE inhibition, Ellman's method; assay type: biochemical; settings: huBuChE; mean ± SEM
T4 construct: purchased Sigma-Aldrich B4186
Description: as §1, §5
as §6, with “The inhibition curve was fitted by plotting percentage enzyme activity (100% for the reference) versus logarithm of test compound concentration.” left out

Aβ1–42 = target: T5, Aβ1–42 (Homo sapiens, UniProt P05067); experiment: Inhibition of self-induced Aβ1–42 aggregation (Thioflavin T assay); assay type: biochemical; settings: compound 25 μM, 24 h, read-out: Inhibitory rate on self-induced Aβ1-42 aggregation
T5 construct: aliquots of 2.0 µL of Aβ1–42 (AS-64129–05 Anaspec Inc.); purchased Anaspec Inc. AS-64129–05
Description: Inhibitory effects of the compounds on self-induced Aβ1–42 aggregation were evaluated using a Thioflavin T (ThT)-(T3516, Sigma-Aldrich, St. Louis, MO) binding assay according to the previously reported method. […] The Aβ1–42 and the test sample solutions were incubated for 24 h at the room temperature.
The inhibitory rate of Aβ1–42 self-induced aggregation was calculated according to the following equation: (1-IFi/IFc) × 100%. IFi and IFc were the fluorescence intensities in the presence and absence of inhibitors, respectively, after subtracting the background fluorescence of the 5 mM Thioflavin T solution. Each measurement was repeated in triplicate. The inhibitory rate of the test compound was shown in mean ± SD.

ICR mice [5] = settings: mouse, in vivo
Description: The activity of AST and ALT, two indicators of liver damage, was determined using corresponding assay kit (EF551 and EF550 for ALT, EH027, and EF548 for AST, Wako, Japan).
One hour after the collection of retrobulbar blood, mice were sacrificed and livers were harvested for morphological studies by using immunohistochemical method. Two 3 mm sections of each liver extending from the hilus to the margin of the left lateral lobe were isolated by Ultra-Thin Semiautomatic Microtome (Leica RM2245, Germany) and immediately placed in 10% buffered formaldehyde, fixed for two days, and embedded together in one paraffin block by using Paraffin Embedding Station (Leica EG1150H, Germany). Subsequently, 5 µm sections were prepared from these paraffin blocks. They were deparaffinated and stained with hematoxylin and eosin or by means of the periodic acid-Schiff procedure for glycogen.

ICR mice [6] = experiment: Morris water maze test, scopolamine-induced cognitive impairment; settings: for Latency to target (second), Day 5 / Latency to target (second), Day 6 / Latency to target (second), Day 7 / Latency to target (second), Day 8 / Latency to target (second), Day 9: learning and training, oral, plus scopolamine; for Latency to target (second), Day 5 / Latency to target (second), Day 6 / Latency to target (second), Day 7 / Latency to target (second), Day 8 / Latency to target (second), Day 9 / Latency to Target: ICR mice; for Latency to Target: probe trial, oral administration plus scopolamine (1 mg/kg ip), mean ± SEM, n = 6; for trajectory in the Morris water maze test: scopolamine-impaired ICR mice, compared to tacrine group

T1 sequence (O42275 24-633): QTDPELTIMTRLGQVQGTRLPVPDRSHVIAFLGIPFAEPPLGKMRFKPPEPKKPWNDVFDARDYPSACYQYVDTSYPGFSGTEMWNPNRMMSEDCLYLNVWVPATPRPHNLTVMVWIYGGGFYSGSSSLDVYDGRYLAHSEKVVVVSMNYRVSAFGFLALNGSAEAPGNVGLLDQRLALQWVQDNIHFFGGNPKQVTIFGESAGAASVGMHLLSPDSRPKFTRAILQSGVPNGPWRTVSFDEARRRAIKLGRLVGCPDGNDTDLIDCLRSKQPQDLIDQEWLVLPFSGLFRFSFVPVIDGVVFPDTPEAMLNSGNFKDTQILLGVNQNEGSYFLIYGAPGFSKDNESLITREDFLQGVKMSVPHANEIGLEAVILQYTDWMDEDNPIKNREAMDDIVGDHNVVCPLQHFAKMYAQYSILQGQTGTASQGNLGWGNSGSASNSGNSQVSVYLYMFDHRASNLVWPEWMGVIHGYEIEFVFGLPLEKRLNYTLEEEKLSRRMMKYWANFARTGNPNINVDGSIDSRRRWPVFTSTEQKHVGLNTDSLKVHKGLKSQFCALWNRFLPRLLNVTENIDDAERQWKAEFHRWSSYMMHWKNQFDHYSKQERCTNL
T3 sequence (P22303 32-614): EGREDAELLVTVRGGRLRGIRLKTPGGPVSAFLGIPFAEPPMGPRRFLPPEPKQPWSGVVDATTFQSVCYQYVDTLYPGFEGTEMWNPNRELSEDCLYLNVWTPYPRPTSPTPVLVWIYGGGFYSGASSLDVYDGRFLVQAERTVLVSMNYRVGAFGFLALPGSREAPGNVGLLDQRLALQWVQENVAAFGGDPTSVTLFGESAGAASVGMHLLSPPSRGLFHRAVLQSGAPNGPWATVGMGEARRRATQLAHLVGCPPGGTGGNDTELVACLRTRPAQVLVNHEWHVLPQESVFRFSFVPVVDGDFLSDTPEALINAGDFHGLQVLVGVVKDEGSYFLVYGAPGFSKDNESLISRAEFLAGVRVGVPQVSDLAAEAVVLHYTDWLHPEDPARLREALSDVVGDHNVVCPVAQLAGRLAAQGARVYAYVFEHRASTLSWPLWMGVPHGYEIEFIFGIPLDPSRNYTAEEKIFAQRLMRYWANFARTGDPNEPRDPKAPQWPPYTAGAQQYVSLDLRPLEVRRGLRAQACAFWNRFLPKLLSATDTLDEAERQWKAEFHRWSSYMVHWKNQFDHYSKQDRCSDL
T5 sequence (P05067 672-713): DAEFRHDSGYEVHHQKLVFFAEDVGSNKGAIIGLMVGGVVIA
T4 sequence (P06276 29-602): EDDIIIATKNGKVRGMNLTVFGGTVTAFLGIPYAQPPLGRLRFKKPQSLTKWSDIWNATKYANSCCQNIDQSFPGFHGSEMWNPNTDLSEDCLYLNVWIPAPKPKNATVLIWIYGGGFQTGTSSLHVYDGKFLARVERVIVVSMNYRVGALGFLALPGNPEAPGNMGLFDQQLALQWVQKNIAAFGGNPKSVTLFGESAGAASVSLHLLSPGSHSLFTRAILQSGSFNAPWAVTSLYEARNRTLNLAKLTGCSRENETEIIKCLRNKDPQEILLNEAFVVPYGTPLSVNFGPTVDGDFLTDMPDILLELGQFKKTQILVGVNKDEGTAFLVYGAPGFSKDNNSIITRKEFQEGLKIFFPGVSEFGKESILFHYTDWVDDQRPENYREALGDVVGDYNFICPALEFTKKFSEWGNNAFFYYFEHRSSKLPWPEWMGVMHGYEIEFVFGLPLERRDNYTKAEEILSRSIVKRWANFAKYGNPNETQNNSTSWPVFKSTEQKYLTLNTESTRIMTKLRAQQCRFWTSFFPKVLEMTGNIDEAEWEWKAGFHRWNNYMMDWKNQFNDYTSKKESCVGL
T2 sequence (P81908 whole entry): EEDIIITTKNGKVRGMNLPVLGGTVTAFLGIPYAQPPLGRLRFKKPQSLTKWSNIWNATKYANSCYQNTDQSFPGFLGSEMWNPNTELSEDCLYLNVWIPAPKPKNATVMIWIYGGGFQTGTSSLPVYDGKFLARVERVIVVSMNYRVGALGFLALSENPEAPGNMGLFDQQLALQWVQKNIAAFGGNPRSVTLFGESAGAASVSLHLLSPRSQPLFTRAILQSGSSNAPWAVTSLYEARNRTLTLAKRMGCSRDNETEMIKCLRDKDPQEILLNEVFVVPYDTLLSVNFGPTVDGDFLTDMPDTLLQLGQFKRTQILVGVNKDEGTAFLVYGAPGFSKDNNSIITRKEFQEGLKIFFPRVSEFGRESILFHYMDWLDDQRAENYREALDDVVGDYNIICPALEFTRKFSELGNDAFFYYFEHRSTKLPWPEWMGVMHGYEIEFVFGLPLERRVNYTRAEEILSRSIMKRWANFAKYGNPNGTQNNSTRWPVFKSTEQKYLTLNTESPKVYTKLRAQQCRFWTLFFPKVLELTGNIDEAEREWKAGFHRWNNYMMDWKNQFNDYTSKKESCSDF

Structure (SMILES) | IC50 [1] | Selectivity index (SI) = BuChE IC50/AChE IC50 [1] | IC50 [2] | IC50 [3] | Selectivity index (SI) = BuChE IC50/AChE IC50, human enzymes [3] | IC50 [4] | inhibition at 25 µM (Aβ1–42) | morphologic changes in liver (ICR mice [5]) | Latency to target (second), Day 5 (ICR mice [6]) | Latency to target (second), Day 6 (ICR mice [6]) | Latency to target (second), Day 7 (ICR mice [6]) | Latency to target (second), Day 8 (ICR mice [6]) | Latency to target (second), Day 9 (ICR mice [6]) | Latency to Target (ICR mice [6]) | trajectory in the Morris water maze test (ICR mice [6])
O=C(/C=C/c1ccc(Cl)cc1)NCCCCCCNc1c2c(nc3ccccc13)CCCC2 [Compound 27, (E)-3-(4-chlorophenyl)-N-(6-((1,2,3,4-tetrahydroacridin-9-yl)amino)hexyl)acrylamide] | 6.9 ± 1.2 nM | 1.9 | 12.9 ± 1.7 nM | 16.5 nM | 0.3 | 5.7 nM | 42.2% | did not cause remarkable morphologic changes in liver | 57.1 ± 6.8 s | 41.5 ± 5.0 s | 39.2 ± 4.3 s | 27.6 ± 2.5 s | 28.3 ± 1.7 s | 25.6 ± 1.8 s | much shortened distances as compared to tacrine group
COc1ccc(/C=C/C(=O)NCCCCCCNc2c3c(nc4ccccc24)CCCC3)cc1 [Compound 30, (E)-3-(4-methoxyphenyl)-N-(6-((1,2,3,4-tetrahydroacridin-9-yl)amino)hexyl)acrylamide] | 3.7 ± 1.5 nM | 6.1 | 22.5 ± 5.9 nM | 15.3 nM | 0.5 | 8 nM | 34.6% | did not cause remarkable morphologic changes in liver | 59.1 ± 7.0 s | 47.3 ± 6.6 s | 46.4 ± 6.8 s | 32.4 ± 5.3 s | 33.2 ± 4.0 s | 29.4 ± 1.9 s | much shortened distances as compared to tacrine group
